These results are taken from ChEMBL document CHEMBL4118101 (Bioorg Med Chem, 2018).

In brackets after ≈: the same amount, converted by molar mass. Activity calls are given as the source filed them. No cut-off for these calls is given here.

For one test, the system named is Aspergillus nidulans. In words: Antifungal activity against Aspergillus nidulans ATCC 38163 measured after 48 hrs by CLSI M38-A2 protocol based method. Particulars: ATCC 38163, 48 h. The class given is functional.
Test [1] relates to Candida albicans. The experiment in a line: Antifungal activity against fluconazole/ITC-susceptible Candida albicans ATCC MYA-2310 measured after 48 hrs by CLSI M27-A3 protocol based method. It counts as functional. Particulars: Candida albicans, ATCC MYA-2310, 48 h; read-out: MIC.
For test [2], the system named is Candida albicans. In words: Antifungal activity against Candida albicans ATCC 10231 measured after 48 hrs by CLSI M27-A3 protocol based method. The class given is functional. The following applies: ATCC 10231, 48 h.
The test system of test [3] is Candida parapsilosis. The experiment in a line: Antifungal activity against Candida parapsilosis ATCC 22019 measured after 48 hrs by CLSI M27-A3 protocol based method. The class given is functional. The following applies: Lodderomyces parapsilosis, ATCC 22019, 48 h.
The test system of test [4] is Nakaseomyces glabratus. The experiment in a line: Antifungal activity against Candida glabrata ATCC 2001 measured after 48 hrs by CLSI M27-A3 protocol based method. The following applies: Nakaseomyces glabratus, CBS 138, 48 h; read-out: MIC. The class given is functional, CBS 138.
For another test, the system named is Aspergillus terreus. In words: Antifungal activity against Aspergillus terreus ATCC MYA-3633 measured after 48 hrs by CLSI M38-A2 protocol based method. It counts as functional. Particulars: ATCC MYA-3633, 48 h.
The subject of test [5] is Candida albicans. The experiment in a line: Antifungal activity against fluconazole/ITC-resistant Candida albicans ATCC MYA-1237 measured after 48 hrs by CLSI M27-A3 protocol based method. The following applies: Candida albicans, ATCC MYA-1237, 48 h; read-out: MIC. The class given is functional.
Test [6] relates to Candida albicans. The experiment in a line: Antifungal activity against fluconazole/ITC-resistant Candida albicans ATCC MYA-1003 measured after 48 hrs by CLSI M27-A3 protocol based method. The class given is functional. The following applies: Candida albicans, ATCC MYA-1003, 48 h; read-out: MIC.
In test [7] the test system is Candida parapsilosis. The experiment in a line: Antifungal activity against Candida parapsilosis isolate CP2 measured after 48 hrs by CLSI M27-A3 protocol based method. It counts as functional. Particulars: Lodderomyces parapsilosis, isolate CP2, 48 h.
For test [8], the system named is Candida albicans. The experiment in a line: Antifungal activity against fluconazole/ITC-resistant Candida albicans ATCC 90819 measured after 48 hrs by CLSI M27-A3 protocol based method. Particulars: Candida albicans, ATCC 90819, 48 h; read-out: MIC. The class given is functional.
Test [9] concerns Candida albicans. In words: Antifungal activity against Candida albicans ATCC 64124 measured after 48 hrs by CLSI M27-A3 protocol based method. It counts as functional. Particulars: Candida albicans, ATCC 64124, 48 h; read-out: MIC.
Test [10] deals with Candida parapsilosis. The experiment in a line: Antifungal activity against Candida parapsilosis isolate CP3 measured after 48 hrs by CLSI M27-A3 protocol based method. It counts as functional. Particulars: Lodderomyces parapsilosis, isolate CP3, 48 h.
Test [11] has as its system Nakaseomyces glabratus. In words: Antifungal activity against Candida glabrata isolate CG3 measured after 48 hrs by CLSI M27-A3 protocol based method. It counts as functional. Particulars: Nakaseomyces glabratus, 48 h; read-out: MIC.
For test [12], the system named is Nakaseomyces glabratus. The experiment in a line: Antifungal activity against Candida glabrata isolate CG2 measured after 48 hrs by CLSI M27-A3 protocol based method. The class given is functional. The following applies: Nakaseomyces glabratus, isolate CG2, 48 h; read-out: MIC.
Test [13] relates to Candida albicans. The experiment in a line: Antifungal activity against fluconazole/ITC-susceptible Candida albicans ATCC MYA-2876 measured after 48 hrs by CLSI M27-A3 protocol based method. It counts as functional. Particulars: Candida albicans, ATCC MYA-2876, 48 h.
The subject of test [14] is Cryptococcus neoformans. In words: Antifungal activity against Cryptococcus neoformans isolate CN3 measured after 48 hrs by CLSI M27-A3 protocol based method. The class given is functional. Particulars: Cryptococcus neoformans, isolate CN3, 48 h; read-out: MIC.
In a further test the test system is Pichia kudriavzevii. In words: Antifungal activity against Candida krusei ATCC 6258 measured after 48 hrs by CLSI M27-A3 protocol based method. It counts as functional. Particulars: Pichia kudriavzevii, ATCC 6258, 48 h.
The test system of test [15] is Cryptococcus neoformans. The experiment in a line: Antifungal activity against Cryptococcus neoformans isolate CN1 measured after 48 hrs by CLSI M27-A3 protocol based method. The class given is functional. The following applies: isolate CN1, 48 h.
Test [16] has as its system Candida parapsilosis. The experiment in a line: Antifungal activity against Candida parapsilosis isolate CP1 measured after 48 hrs by CLSI M27-A3 protocol based method. The following applies: Lodderomyces parapsilosis, isolate CP1, 48 h. The class given is functional.
Another test relates to Aspergillus flavus. In words: Antifungal activity against Aspergillus flavus ATCC MYA-3631 measured after 48 hrs by CLSI M38-A2 protocol based method. It counts as functional. Particulars: ATCC MYA-3631, 48 h.
Test [17] has as its system Nakaseomyces glabratus. The experiment in a line: Antifungal activity against Candida glabrata isolate CG1 measured after 48 hrs by CLSI M27-A3 protocol based method. The following applies: Nakaseomyces glabratus, 48 h; read-out: MIC. It counts as functional.
The test system of test [18] is Cryptococcus neoformans. The experiment in a line: Antifungal activity against Cryptococcus neoformans isolate CN2 measured after 48 hrs by CLSI M27-A3 protocol based method. It counts as functional. Particulars: Cryptococcus neoformans, isolate CN2, 48 h; read-out: MIC.
In test [19] the test system is Candida albicans. The experiment in a line: Induction of membrane permeabilization in Candida albicans ATCC 10231 assessed as membrane disruption at 4 times MIC after 1 hr by propidium iodide staining based fluorescence microscopy. The class given is functional, organism-based.

`OCCCCCCNCC(O)(Cn1cncn1)c1ccc(F)cc1F` (configuration not stated): the MIC against Aspergillus nidulans, in the test with Candida albicans [1], in the test on Candida albicans [2], in the test on Candida parapsilosis [3], in the test on Nakaseomyces glabratus [4] and in the test with Aspergillus terreus was above 88.3 µM throughout. In addition, the MIC in the test on Candida albicans [5] was above 88.3 µM; in the test on Candida albicans [6] it was above 88.3 µM; in the test with Candida parapsilosis [7] it was 88.3 µM (≈ 31.3 µg/mL); with Candida albicans [8], 88.3 µM (≈ 31.3 µg/mL); with Candida albicans [9] it was above 88.3 µM; against Candida parapsilosis [10], 88.3 µM (≈ 31.3 µg/mL). Besides, the MIC in the test with Nakaseomyces glabratus [11] is above 88.3 µM; in the test with Nakaseomyces glabratus [12], above 88.3 µM; against Candida albicans [13] it was 88.3 µM (≈ 31.3 µg/mL); with Cryptococcus neoformans [14] it was above 88.3 µM; against Pichia kudriavzevii, above 88.3 µM; with Cryptococcus neoformans [15], above 88.3 µM. For the same molecule, the MIC in the test with Candida parapsilosis [16] was 88.3 µM (≈ 31.3 µg/mL); in the test with Aspergillus flavus it was above 88.3 µM; in the test on Nakaseomyces glabratus [17], above 88.3 µM; with Cryptococcus neoformans [18], above 88.3 µM.
In the case of `CCCCCCCCCCCCCCSC[C@H]1O[C@H](O[C@H]2[C@H](O)[C@@H](O[C@H]3O[C@H](CO)[C@@H](O)[C@H](N)[C@H]3O)[C@H](N)C[C@@H]2N)[C@H](N)[C@@H](O)[C@@H]1O`, in the test on Candida albicans [19], the outcome was Active.
With `CC[C@H](C)C[C@H](C)CCCCCCCCC(=O)N[C@H]1C[C@@H](O)[C@@H](NCCN)NC(=O)[C@@H]2[C@@H](O)CCN2C(=O)[C@H]([C@H](O)CCN)NC(=O)[C@H]([C@H](O)[C@@H](O)c2ccc(O)cc2)NC(=O)[C@@H]2C[C@@H](O)CN2C(=O)[C@H]([C@@H](C)O)NC1=O` [CASPOFUNGIN], the MIC was above 25.8 µM with Aspergillus nidulans; 0.1 µM (≈ 0.109 µg/mL) in the test on Candida albicans [1]; 0.8 µM (≈ 0.875 µg/mL) against Candida albicans [2]; 1.6 µM (≈ 1.75 µg/mL) in the test on Candida parapsilosis [3]; 0.05 µM (≈ 0.0547 µg/mL) in the test on Nakaseomyces glabratus [4]; above 25.8 µM in the test on Aspergillus terreus. The MIC came out at 0.2 µM (≈ 0.219 µg/mL) with Candida albicans [5]; 0.4 µM (≈ 0.437 µg/mL) in the test on Candida albicans [6]; 0.4 µM (≈ 0.437 µg/mL) against Candida parapsilosis [7]; 0.1 µM (≈ 0.109 µg/mL) in the test on Candida albicans [8]; 0.2 µM (≈ 0.219 µg/mL) in the test on Candida albicans [9]; 0.4 µM (≈ 0.437 µg/mL) in the test on Candida parapsilosis [10]. The MIC turned out to be 0.8 µM (≈ 0.875 µg/mL) with Nakaseomyces glabratus [11]; 0.2 µM (≈ 0.219 µg/mL) in the test on Nakaseomyces glabratus [12]; 0.05 µM (≈ 0.0547 µg/mL) in the test with Candida albicans [13]; 12.9 µM (≈ 14.1 µg/mL) in the test with Cryptococcus neoformans [14]; 0.4 µM (≈ 0.437 µg/mL) with Pichia kudriavzevii; 12.9 µM (≈ 14.1 µg/mL) with Cryptococcus neoformans [15]. Further, the MIC is 0.4 µM (≈ 0.437 µg/mL) in the test on Candida parapsilosis [16], above 25.8 µM with Aspergillus flavus, 1.6 µM (≈ 1.75 µg/mL) in the test with Nakaseomyces glabratus [17] and 25.8 µM (≈ 28.2 µg/mL) in the test with Cryptococcus neoformans [18].
Consider `OC(CNC1CCCCCCC1)(Cn1cncn1)c1ccc(F)cc1F` (configuration not stated), for which the minimum inhibitory concentration (MIC) in the test on Aspergillus nidulans was above 85.8 µM; in the test on Candida albicans [1], 10.7 to 85.8 µM (≈ 3.9 to 31.3 µg/mL); with Candida albicans [2], 85.8 µM (≈ 31.3 µg/mL); with Candida parapsilosis [3], 10.7 µM (≈ 3.9 µg/mL); with Nakaseomyces glabratus [4] it was 85.8 µM (≈ 31.3 µg/mL); in the test with Aspergillus terreus it was above 85.8 µM. In addition, the MIC in the test with Candida albicans [5] was 85.8 µM (≈ 31.3 µg/mL); in the test with Candida albicans [6], above 85.8 µM; against Candida parapsilosis [7], 2.7 µM (≈ 0.984 µg/mL); with Candida albicans [8] it was 85.8 µM (≈ 31.3 µg/mL); with Candida albicans [9], 85.8 µM (≈ 31.3 µg/mL); against Candida parapsilosis [10], 5.4 µM (≈ 1.97 µg/mL). The MIC is 85.8 µM (≈ 31.3 µg/mL) in the test on Nakaseomyces glabratus [11]; 42.8 µM (≈ 15.6 µg/mL) in the test with Nakaseomyces glabratus [12]; above 85.8 µM with Candida albicans [13]; 42.8 µM (≈ 15.6 µg/mL) in the test with Cryptococcus neoformans [14]; 85.8 µM (≈ 31.3 µg/mL) against Pichia kudriavzevii; 21.4 µM (≈ 7.8 µg/mL) with Cryptococcus neoformans [15]. Also, the minimum inhibitory concentration (MIC) with Candida parapsilosis [16] is 2.7 µM (≈ 0.984 µg/mL); in the test on Aspergillus flavus, 85.8 µM (≈ 31.3 µg/mL); in the test on Nakaseomyces glabratus [17] it was 85.8 µM (≈ 31.3 µg/mL); with Cryptococcus neoformans [18], above 85.8 µM.

What is called MIC is the least concentration at which growth counts as inhibited.
